{"source": "patent US12264170B2", "about": "“Antimicrobial organosilanes” (TOPIKOS SCIENTIFIC, INC., priority 2019, dated 2025)", "key": {"[1]": {"tested_on": "Candida albicans ATCC 90028", "assay": "MIC microdilution assay (Example 32)", "type": "cell-based", "details": "C. albicans ATCC 90028 (quality control); RPMI media; 35±2° C. 24 to 48 hours; two values given", "protocol": "(§1) Strain IDs starting with “ATCC” were acquired from the American Type Culture Collection (Manassas, VA), strain IDs starting with “Eurofins” were acquired from Eurofins (Herndon, VA), while strain IDs starting with “CDC” were acquired from the Centers for Disease Control and Prevention (Atlanta, GA). All strains were maintained as −80° C. frozen glycerol stocks. S. aureus and P. aeruginosa were grown overnight on Tryptic Soy Agar (TSA) plates at 35±2° C., ambient atmosphere, while S. pyogenes was grown overnight on TSA+5% defibrinated sheep blood at 35±2° C., 5% CO2. C. jejuni was grown for 48 hours on TSA+5% defibrinated sheep blood at 35±2° C., in a microaerophilic environment generated by CampyGen sachet. All fungal species (i.e. C. albicans and C. auris) were grown overnight on Sabouraud Dextrose Agar (SDA) plates at 35±2° C., ambient atmosphere.\n(§2) Test article Compound 1 (batch #7G30A9.203) was stored at 4° C. The antibiotic Tobramycin and antifungal Amphotericin B were used as quality control (QC) compounds for the MIC assay. Stock solutions of 3.2 mg/mL Tobramycin (Sigma-Aldrich, cat #T1783-500MG) and 3.2 mg/mL Amphotericin B (CP Lab Chemicals, cat #TOK-A007-1G) were prepared in sterile ultrapure water.\n(§3) For bacteria strains, a few colonies of each strain were collected with a sterile swab and used to make a McFarland 0.5 standard solution (approximately 1×10^8 CFU/mL) in sterile PBS. The McFarland was then diluted 1:180 in Cation Adjusted Muller-Hinton Broth (CAMHB) for S. aureus and P. aeruginosa. S. pyogenes McFarland was diluted 1:180 in CAMHB+5% defibrinated sheep blood, while C. jejuni McFarland was diluted 1:180 in CAMHB+5% laked horse blood. 90 μL of this inoculum was combined with 10 μL of the 10× test article in a 96-well plate for a final concentration of 1×.\n(§4) For the yeasts C. albicans and C. auris, a McFarland 0.5 standard solution in sterile PBS was similarly prepared (approximately 1×10^6 CFU/mL) and was subsequently diluted 1:180 in RPMI 1640 media buffered with 0.165 M MOPS at pH 7.0 (herein referred to as “RPMI media”). 90 μL of the Candida inoculum was combined with 10 μL of the 10× test article in a 96-well plate for a final concentration of 1×.\n(§5) Except for C. jejuni, all bacterial-strain MIC 96-well plates were incubated at 35±2° C. for 18 to 20 hours, ambient atmosphere. C. jejuni was incubated at 35±2° C. for 48 hours, under microaerophilic condition. All Candida MIC 96-well plates were incubated at 35±2° C. for 24 to 48 hours, ambient atmosphere, until growth in control wells were observed. After incubation, the 96-well plates were examined visually and on a spectrophotometer at absorbance OD650. MIC is defined as the lowest concentration of a compound in which no visible growth is observed."}, "Candida auris CDC 0385 [2]": {"tested_on": "Candida auris CDC 0385", "assay": "MIC microdilution assay (Example 32)", "type": "cell-based", "details": "C. auris CDC 0385; RPMI media; 35±2° C. 24 to 48 hours; two values given", "protocol": "as §1, §2, §3, §4, §5"}, "[3]": {"tested_on": "Pseudomonas aeruginosa ATCC 27853", "assay": "MIC microdilution assay (Example 32)", "type": "cell-based", "details": "P. aeruginosa ATCC 27853 (quality control); CAMHB; 35±2° C. 18 to 20 hours; two values given", "protocol": "as §1, §2, §3, §5"}, "[4]": {"tested_on": "Pseudomonas aeruginosa CDC 0248", "assay": "MIC microdilution assay (Example 32)", "type": "cell-based", "details": "P. aeruginosa CDC 0248; CAMHB; 35±2° C. 18 to 20 hours; two values given", "protocol": "as §1, §2, §3, §5"}, "[5]": {"tested_on": "Pseudomonas aeruginosa Eurofins 1674623", "assay": "MIC microdilution assay (Example 32)", "type": "cell-based", "details": "P. aeruginosa Eurofins 1674623; CAMHB; 35±2° C. 18 to 20 hours; two values given", "protocol": "as §1, §2, §3, §5"}, "[6]": {"tested_on": "Streptococcus pyogenes Eurofins 2065755", "assay": "MIC microdilution assay (Example 32)", "type": "cell-based", "details": "S. pyogenes Eurofins 2065755; CAMHB+5% defibrinated sheep blood; 35±2° C. 18 to 20 hours; two values given", "protocol": "as §1, §2, §3, §5"}, "[7]": {"tested_on": "Acinetobacter baumannii Eurofins 1674627", "assay": "MBC/MFC determination (Example 32)", "type": "cell-based", "details": "A. baumannii Eurofins 1674627; plated after 18 to 20 hours incubation; two values given", "protocol": "(§6) 10 μL of liquid from each test condition was plated on the appropriate agar media for each test strain. Except for C. jejuni, all other strains were plated for MBC/MFC after 18 to 20 hours incubation, or until growth in growth control wells were visually observed. MBC for C. jejuni was plated 48 hours after incubation of the 96-well plate. Once the liquid from the 96-well plate has been allowed to air dry in a biosafety cabinet, the agar plates were incubated under the appropriate conditions and colony formation was assessed. MBC/MFC is defined as the lowest concentration of a compound in which no colonies were recovered."}, "[8]": {"tested_on": "Campylobacter jejuni CDC 0413", "assay": "MBC/MFC determination (Example 32)", "type": "cell-based", "details": "C. jejuni CDC 0413; plated 48 hours after incubation; two values given", "protocol": "as §6"}, "[9]": {"tested_on": "Candida albicans ATCC 90028", "assay": "MBC/MFC determination (Example 32)", "type": "cell-based", "details": "C. albicans ATCC 90028; plated after 18 to 20 hours incubation or until growth in control wells; two values given", "protocol": "as §6"}, "Candida auris CDC 0385 [10]": {"tested_on": "Candida auris CDC 0385", "assay": "MBC/MFC determination (Example 32)", "type": "cell-based", "details": "C. auris CDC 0385; plated after 18 to 20 hours incubation or until growth in control wells; two values given", "protocol": "as §6"}, "[11]": {"tested_on": "Pseudomonas aeruginosa ATCC 27853", "assay": "MBC/MFC determination (Example 32)", "type": "cell-based", "details": "P. aeruginosa ATCC 27853; plated after 18 to 20 hours incubation; two values given", "protocol": "as §6"}, "[12]": {"tested_on": "Pseudomonas aeruginosa CDC 0248", "assay": "MBC/MFC determination (Example 32)", "type": "cell-based", "details": "P. aeruginosa CDC 0248; plated after 18 to 20 hours incubation; two values given", "protocol": "as §6"}, "[13]": {"tested_on": "Pseudomonas aeruginosa Eurofins 1674623", "assay": "MBC/MFC determination (Example 32)", "type": "cell-based", "details": "P. aeruginosa Eurofins 1674623; plated after 18 to 20 hours incubation; two values given", "protocol": "as §6"}, "[14]": {"tested_on": "Streptococcus pyogenes Eurofins 2065755", "assay": "MBC/MFC determination (Example 32)", "type": "cell-based", "details": "S. pyogenes Eurofins 2065755; plated after 18 to 20 hours incubation; two values given", "protocol": "as §6"}, "Aspergillus niger": {"tested_on": "Aspergillus niger", "assay": "Disk diffusion susceptibility test", "type": "cell-based"}, "Candida albicans": {"tested_on": "Candida albicans", "assay": "Disk diffusion susceptibility test", "type": "cell-based"}, "Fusarium oxysporum": {"tested_on": "Fusarium oxysporum", "assay": "Disk diffusion susceptibility test", "type": "cell-based"}, "Enterococcus faecalis": {"tested_on": "Enterococcus faecalis", "assay": "Disk diffusion susceptibility test", "type": "cell-based"}, "Mycoplasma pneumoniae": {"tested_on": "Mycoplasma pneumoniae", "assay": "Disk diffusion susceptibility test", "type": "cell-based", "details": "repeated experiment, FIG. 2"}, "Staphylococcus aureus": {"tested_on": "Staphylococcus aureus", "assay": "Disk diffusion susceptibility test", "type": "cell-based", "details": "repeated experiment, FIG. 2"}, "[15]": {"tested_on": "Proteus mirabilis and Pseudomonas aeruginosa", "assay": "Treatment of ocular infection in a dog", "type": "in vivo", "details": "male bull dog, 2% aqueous solution 3 times per day; for examination of the eyes: infection in both eyes", "protocol": "A male bull dog presented with an infection in both eyes which was cultured and tested positive for Proteus mirabilis and Pseudomonas aeruginosa. The dog was administered a 2% aqueous solution of Compound 1 at a rate of 3 times per day for 7 days. […] On day 6, the dog was reexamined. […] To verify, a swab of the eye was taken and cultured. The culture was negative for both Proteus mirabilis and Pseudomonas aeruginosa."}, "[16]": {"details": "10 mg/mL, repeated experiment, FIG. 2"}, "[17]": {"details": "100 mg/mL, repeated experiment, FIG. 2"}}, "data": [{"smiles": "CCCCCCCCCCCCCCCCCC[N+](C)(C)CCC[Si](OCC(CO)(CO)NCCS(=O)(=O)[O-])(OCC(CO)(CO)NCCS(=O)(=O)[O-])OCC(CO)(CO)NCCS(=O)(=O)O.[Cl-].[Na+].[Na+]", "note": "[Compound 1]", "values": [{"measurement": "MIC", "setting": "[1]", "result": 1, "unit": "µg/mL"}, {"measurement": "MIC", "setting": "Candida auris CDC 0385 [2]", "result": 1, "unit": "µg/mL"}, {"measurement": "MIC", "setting": "[3]", "result": ">64", "unit": "µg/mL"}, {"measurement": "MIC", "setting": "[4]", "result": ">64", "unit": "µg/mL"}, {"measurement": "MIC", "setting": "[5]", "result": ">64", "unit": "µg/mL"}, {"measurement": "MIC", "setting": "[6]", "result": 8, "unit": "µg/mL"}, {"measurement": "MBC", "setting": "[7]", "result": 64, "unit": "µg/mL"}, {"measurement": "MBC", "setting": "[8]", "result": 32, "unit": "µg/mL"}, {"measurement": "MBC", "setting": "[9]", "result": 1, "unit": "µg/mL"}, {"measurement": "MBC", "setting": "Candida auris CDC 0385 [10]", "result": 2, "unit": "µg/mL"}, {"measurement": "MBC", "setting": "[11]", "result": ">64", "unit": "µg/mL"}, {"measurement": "MBC", "setting": "[12]", "result": ">64", "unit": "µg/mL"}, {"measurement": "MBC", "setting": "[13]", "result": ">64", "unit": "µg/mL"}, {"measurement": "MBC", "setting": "[14]", "result": 8, "unit": "µg/mL"}, {"measurement": "inhibition (zone of inhibition), disk diffusion", "setting": "Aspergillus niger; [16]", "result": "complete inhibition"}, {"measurement": "inhibition (zone of inhibition), disk diffusion", "setting": "Aspergillus niger; [17]", "result": "complete inhibition"}, {"measurement": "inhibition (zone of inhibition), disk diffusion", "setting": "Aspergillus niger; 1% aqueous solution, FIG. 1", "result": "complete inhibition"}, {"measurement": "inhibition (zone of inhibition), disk diffusion", "setting": "Aspergillus niger; 2% aqueous solution, FIG. 1", "result": "complete inhibition"}, {"measurement": "inhibition (zone of inhibition), disk diffusion", "setting": "Candida albicans; [16]", "result": "complete inhibition"}, {"measurement": "inhibition (zone of inhibition), disk diffusion", "setting": "Candida albicans; [17]", "result": "complete inhibition"}, {"measurement": "inhibition (zone of inhibition), disk diffusion", "setting": "Candida albicans; 1% aqueous solution, FIG. 1", "result": "complete inhibition"}, {"measurement": "inhibition (zone of inhibition), disk diffusion", "setting": "Candida albicans; 2% aqueous solution, FIG. 1", "result": "complete inhibition"}, {"measurement": "inhibition (zone of inhibition), disk diffusion", "setting": "Fusarium oxysporum; [16]", "result": "complete inhibition"}, {"measurement": "inhibition (zone of inhibition), disk diffusion", "setting": "Fusarium oxysporum; [17]", "result": "complete inhibition"}, {"measurement": "inhibition (zone of inhibition), disk diffusion", "setting": "Fusarium oxysporum; 1% aqueous solution, FIG. 1", "result": "complete inhibition"}, {"measurement": "inhibition (zone of inhibition), disk diffusion", "setting": "Fusarium oxysporum; 2% aqueous solution, FIG. 1", "result": "complete inhibition"}, {"measurement": "inhibition (zone of inhibition), disk diffusion", "setting": "Enterococcus faecalis; 1 mg/mL, repeated experiment, FIG. 2", "result": "complete inhibition"}, {"measurement": "inhibition (zone of inhibition), disk diffusion", "setting": "Enterococcus faecalis; [16]", "result": "complete inhibition"}, {"measurement": "inhibition (zone of inhibition), disk diffusion", "setting": "Enterococcus faecalis; [17]", "result": "complete inhibition"}, {"measurement": "inhibition (zone of inhibition), disk diffusion", "setting": "Enterococcus faecalis; 1% aqueous solution, FIG. 1", "result": "complete inhibition"}, {"measurement": "inhibition (zone of inhibition), disk diffusion", "setting": "Enterococcus faecalis; 2% aqueous solution, FIG. 1", "result": "complete inhibition"}, {"measurement": "inhibition (zone of inhibition), disk diffusion", "setting": "Mycoplasma pneumoniae; 1 mg/mL", "result": "complete inhibition"}, {"measurement": "inhibition (zone of inhibition), disk diffusion", "setting": "Mycoplasma pneumoniae; 10 mg/mL", "result": "complete inhibition"}, {"measurement": "inhibition (zone of inhibition), disk diffusion", "setting": "Mycoplasma pneumoniae; 100 mg/mL", "result": "complete inhibition"}, {"measurement": "inhibition (zone of inhibition), disk diffusion", "setting": "Staphylococcus aureus; 1 mg/mL", "result": "complete inhibition"}, {"measurement": "inhibition (zone of inhibition), disk diffusion", "setting": "Staphylococcus aureus; 10 mg/mL", "result": "complete inhibition"}, {"measurement": "inhibition (zone of inhibition), disk diffusion", "setting": "Staphylococcus aureus; 100 mg/mL", "result": "complete inhibition"}, {"measurement": "examination of the eyes", "setting": "[15]; day 2", "result": "signs of reduced infection"}, {"measurement": "examination of the eyes", "setting": "[15]; day 6", "result": "no sign of infection"}, {"measurement": "culture of eye swab for Proteus mirabilis and Pseudomonas aeruginosa", "setting": "[15]; swab at day 6", "result": "negative"}]}]}
